# Experimental data reported in publication PMC12892976, “Alkylation-based optimization of antifungal FPPS inhibitors yields a potent, broad-spectrum lipophilic zoledronate derivative” (mBio, 2025).
# Assays:
# Trichophyton tonsurans = experiment: checkerboard drug interaction (FICI, MICc); assay type: cell-based;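 also: simplified diagonal checkerboard screen combining antifungals with FPPS inhibitors, with FICI calculated under the Loewe additivity model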
# Procedure: (§1) Drug interactions between antifungals and FPPS inhibitors were investigated using a simplified checkerboard diagonal screening method ([45]). […] FICIs were determined according to the Loewe additivity model ([17]).
# Cryptococcus tetragattii = experiment: MIC broth microdilution (CLSI); assay type: cell-based; conditions: Cryptococcus tetragattii WM779
# Procedure: (§2) Antifungal susceptibility was determined by broth microdilution according to the CLSI guidelines described in M27-Ed4 ([16]).
# Candida dubliniensis = experiment: checkerboard drug interaction (FICI, MICc); assay type: cell-based;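 also: simplified diagonal checkerboard screen pairing antifungals with FPPS inhibitors, FICI calculated under the Loewe additivity model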
# Procedure: as §1
# Paraphyton cookei [1] = experiment: checkerboard drug interaction (FICI, MICc);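 also: simplified diagonal checkerboard screen pairing an antifungal with an FPPS inhibitor, FICI computed under the Loewe additivity model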
# Procedure: as §1
# Nannizzia gypsea [2] = experiment: checkerboard drug interaction (FICI, MICc);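 also: simplified diagonal checkerboard screen pairing antifungals with FPPS inhibitors, FICI derived using the Loewe additivity model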
# Procedure: as §1
# Pichia kudriavzevii [3] = experiment: MIC broth microdilution (CLSI); assay type: cell-based; conditions: Pichia kudriavzavii ATCC 6258
# Procedure: Antifungal susceptibility was determined by broth microdilution according to the CLSI guidelines described in M27-Ed4 ([16]). […] MFC was determined by back-plating drug-treated cultures from MIC broths onto SDA plates. The MFC was defined as the lowest concentration from which no colonies could be cultured.
# Cryptococcus gattii = experiment: checkerboard drug interaction (FICI, MICc); assay type: cell-based;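 also: simplified diagonal checkerboard screen pairing antifungals with FPPS inhibitors, FICI computed under the Loewe additivity model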
# Procedure: as §1
# [4] = system: Cryptococcus deneoformans; experiment: MIC broth microdilution (CLSI); assay type: cell-based; conditions: Cryptococcus deneoformans JEC21
# Procedure: as §2
# Microsporum canis [5] = experiment: MIC broth microdilution (CLSI); conditions: Microsporum canis R-232
# Procedure: as §2
# [6] = system: Aspergillus frankstonensis; experiment: MIC broth microdilution (CLSI); assay type: cell-based; conditions: Aspergillus frankstonensis DTO 341-F3
# Procedure: as §2
# Aspergillus niger [7] = experiment: MIC broth microdilution (CLSI); assay type: cell-based; conditions: Aspergillus niger 111
# Procedure: as §2
# [8] = system: Cryptococcus bacillisporus; experiment: MIC broth microdilution (CLSI); assay type: cell-based; conditions: Cryptococcus bacillisporus NIH179
# Procedure: as §2
# Aspergillus parafelis [9] = experiment: MIC broth microdilution (CLSI); assay type: cell-based; conditions: Aspergillus parafelis DTO 341-F2
# Procedure: as §2
# Aspergillus felis = experiment: MIC broth microdilution (CLSI); assay type: cell-based; conditions: Aspergillus felis IHE87256683D6
# Procedure: as §2
# Mucor circinelloides = experiment: MIC broth microdilution (CLSI); assay type: cell-based; conditions: Mucor circinelloides 80-14-240-5007
# Procedure: as §2
# Pichia kudriavzevii [10] = experiment: checkerboard drug interaction (FICI, MICc); assay type: cell-based;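 also: antifungal plus FPPS inhibitor interactions tested in a simplified diagonal checkerboard screen, with FICI calculated under the Loewe additivity model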
# Procedure: as §1
# Fusarium solani = experiment: checkerboard drug interaction (FICI, MICc); assay type: cell-based;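 also: simplified diagonal checkerboard screen pairing antifungals with FPPS inhibitors, FICI derived under the Loewe additivity model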
# Procedure: as §1
# Paraphyton cookei [11] = experiment: MIC broth microdilution (CLSI); assay type: cell-based; conditions: Paraphyton cookei R-639
# Procedure: as §2
# Aspergillus lentulus = experiment: checkerboard drug interaction (FICI, MICc); assay type: cell-based;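 also: simplified diagonal checkerboard screen pairing antifungals with FPPS inhibitors, with the interaction index calculated under the Loewe additivity model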
# Procedure: as §1
# Candida parapsilosis = experiment: checkerboard drug interaction (FICI, MICc); assay type: cell-based;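 also: simplified diagonal checkerboard screen pairing antifungals with FPPS inhibitors, with FICI computed under the Loewe additivity model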
# Procedure: as §1
# Aspergillus udagawae [12] = experiment: checkerboard drug interaction (FICI, MICc); assay type: cell-based;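 also: simplified diagonal checkerboard screen pairing antifungals with FPPS inhibitors, FICI calculated using the Loewe additivity model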
# Procedure: as §1
# Aspergillus parafelis [13] = experiment: checkerboard drug interaction (FICI, MICc);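 also: simplified diagonal checkerboard screen pairing antifungals with FPPS inhibitors, FICI calculated under the Loewe additivity model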
# Procedure: as §1
# [14] = system: Cryptococcus bacillisporus; experiment: checkerboard drug interaction (FICI, MICc); assay type: cell-based;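 also: interaction of antifungals with FPPS inhibitors assessed by a simplified diagonal checkerboard screen, with FICI computed under the Loewe additivity model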
# Procedure: as §1
# Nannizzia gypsea [15] = experiment: MIC broth microdilution (CLSI); assay type: cell-based; conditions: Nannizzia gypsea R-131
# Procedure: as §2
# Nannizzia nana [16] = experiment: MIC broth microdilution (CLSI); assay type: cell-based; conditions: Nannizzia nana R-133
# Procedure: as §2
# Aspergillus udagawae [17] = experiment: MIC broth microdilution (CLSI); assay type: cell-based; conditions: Aspergillus udagawae 8G81
# Procedure: as §2
# Epidermophyton floccosum = experiment: MIC broth microdilution (CLSI); assay type: cell-based; conditions: Epidermophyon floccosum R-113
# Procedure: as §2
# Trichophyton soudanense = experiment: MIC broth microdilution (CLSI); conditions: Trichophyton soudanense R-167
# Procedure: as §2
# Aspergillus terreus [18] = experiment: checkerboard drug interaction (FICI, MICc); assay type: cell-based;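 also: simplified diagonal checkerboard screen pairing antifungals with FPPS inhibitors, FICI derived by the Loewe additivity model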
# Procedure: as §1
# Nannizzia nana [19] = experiment: checkerboard drug interaction (FICI, MICc); assay type: cell-based;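 also: simplified diagonal checkerboard screen pairing antifungals with FPPS inhibitors, FICI calculated under the Loewe additivity model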
# Procedure: as §1
# Microsporum canis [20] = experiment: checkerboard drug interaction (FICI, MICc); assay type: cell-based;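 also: simplified diagonal checkerboard screen pairing antifungals with FPPS inhibitors, FICI calculated under the Loewe additivity model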
# Procedure: as §1
# Scedosporium apiospermum = experiment: checkerboard drug interaction (FICI, MICc); assay type: cell-based;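 also: simplified diagonal checkerboard screen of antifungal plus FPPS inhibitor pairs, with FICI computed under the Loewe additivity model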
# Procedure: as §1
# Candida auris = experiment: MIC broth microdilution (CLSI); assay type: cell-based; conditions: Candida auris CDC-0384
# Procedure: as §2
# Fusarium oxysporum = experiment: checkerboard drug interaction (FICI, MICc); assay type: cell-based
# Procedure: as §1
# Aspergillus terreus [21] = experiment: MIC broth microdilution (CLSI); assay type: cell-based; conditions: Aspergillus terreus 75-16-089-2500
# Procedure: as §2
# Aspergillus niger [22] = experiment: checkerboard drug interaction (FICI, MICc); assay type: cell-based
# Procedure: as §1
smiles,measurement,setting,value
"CC(=O)N1CCN(c2ccc(OCC3COC(Cn4ccnc4)(c4ccc(Cl)cc4Cl)O3)cc2)CC1 (centres unmarked) [KET, ketoconazole]",antifungal MICc,Trichophyton tonsurans; in combination with 10-ZOL,0.25
same,antifungal MICc,Trichophyton tonsurans; in combination with ZOL,0.5
same,MIC / MEC,Cryptococcus tetragattii,0.5 µg/mL
same,antifungal MICc,Candida dubliniensis; in combination with 10-ZOL,0.006
same,antifungal MICc,Candida dubliniensis; in combination with ZOL,0.005
same,antifungal MICc,Paraphyton cookei [1]; in combination with 10-ZOL,1
same,antifungal MICc,Paraphyton cookei [1]; in combination with ZOL,4
same,antifungal MICc,Nannizzia gypsea [2]; in combination with 10-ZOL,2
same,antifungal MICc,Nannizzia gypsea [2]; in combination with ZOL,1
same,MIC / MEC,Pichia kudriavzevii [3],0.25 µg/mL
same,antifungal MICc,Cryptococcus gattii; in combination with 10-ZOL,0.125
same,antifungal MICc,Cryptococcus gattii; in combination with ZOL,0.5
same,MIC / MEC,[4],0.13 µg/mL
same,MIC / MEC,Microsporum canis [5],16 µg/mL
same,MIC / MEC,[6],8 µg/mL
same,MIC / MEC,Aspergillus niger [7],8 µg/mL
same,MIC / MEC,[8],0.25 µg/mL
same,MIC / MEC,Aspergillus parafelis [9],>16 µg/mL
same,MIC / MEC,Aspergillus felis,16 µg/mL
same,MIC / MEC,Mucor circinelloides,16 µg/mL
same,antifungal MICc,Pichia kudriavzevii [10]; in combination with 10-ZOL,0.25
same,antifungal MICc,Pichia kudriavzevii [10]; in combination with ZOL,0.06
same,antifungal MICc,Fusarium solani; in combination with 10-ZOL,4
same,antifungal MICc,Fusarium solani; in combination with ZOL,4
same,MIC / MEC,Paraphyton cookei [11],8 µg/mL
same,antifungal MICc,Aspergillus lentulus; in combination with 10-ZOL,4
same,antifungal MICc,Aspergillus lentulus; in combination with ZOL,4
same,antifungal MICc,Candida parapsilosis; in combination with 10-ZOL,0.015
same,antifungal MICc,Candida parapsilosis; in combination with ZOL,0.03
same,antifungal MICc,Aspergillus udagawae [12]; in combination with 10-ZOL,0.5
same,antifungal MICc,Aspergillus udagawae [12]; in combination with ZOL,2
same,antifungal MICc,Aspergillus parafelis [13]; in combination with 10-ZOL,16
same,antifungal MICc,Aspergillus parafelis [13]; in combination with ZOL,32
same,antifungal MICc,[14]; in combination with 10-ZOL,0.125
same,antifungal MICc,[14]; in combination with ZOL,0.25
same,MIC / MEC,Nannizzia gypsea [15],16 µg/mL
same,MIC / MEC,Nannizzia nana [16],0.5 µg/mL
same,MIC / MEC,Aspergillus udagawae [17],8 µg/mL
same,MIC / MEC,Epidermophyton floccosum,2 µg/mL
same,MIC / MEC,Trichophyton soudanense,4 µg/mL
same,antifungal MICc,Aspergillus terreus [18]; in combination with 10-ZOL,2
same,antifungal MICc,Aspergillus terreus [18]; in combination with ZOL,0.25
same,antifungal MICc,Nannizzia nana [19]; in combination with 10-ZOL,0.5
same,antifungal MICc,Nannizzia nana [19]; in combination with ZOL,0.13
same,antifungal MICc,Microsporum canis [20]; in combination with 10-ZOL,1
same,antifungal MICc,Microsporum canis [20]; in combination with ZOL,4
same,antifungal MICc,Scedosporium apiospermum; in combination with 10-ZOL,4
same,antifungal MICc,Scedosporium apiospermum; in combination with ZOL,4
same,MIC / MEC,Candida auris,4 µg/mL
same,antifungal MICc,Fusarium oxysporum; in combination with 10-ZOL,16
same,antifungal MICc,Fusarium oxysporum; in combination with ZOL,4
same,MIC / MEC,Aspergillus terreus [21],2 µg/mL
same,antifungal MICc,Aspergillus niger [22]; in combination with 10-ZOL,2
same,antifungal MICc,Aspergillus niger [22]; in combination with ZOL,4
C[C@@H](c1ncncc1F)[C@](O)(Cn1cncn1)c1ccc(F)cc1F [VOR],antifungal MICc,Trichophyton tonsurans; in combination with 10-ZOL,0.063
same,antifungal MICc,Trichophyton tonsurans; in combination with ZOL,0.0625
same,MIC / MEC,Cryptococcus tetragattii,0.13 µg/mL
same,antifungal MICc,Candida dubliniensis; in combination with 10-ZOL,0.033
same,antifungal MICc,Candida dubliniensis; in combination with ZOL,0.0125
same,antifungal MICc,Paraphyton cookei [1]; in combination with ZOL,0.125
same,antifungal MICc,Nannizzia gypsea [2]; in combination with 10-ZOL,0.25
same,antifungal MICc,Nannizzia gypsea [2]; in combination with ZOL,0.0625
same,MIC / MEC,Pichia kudriavzevii [3],0.5 µg/mL
same,antifungal MICc,Cryptococcus gattii; in combination with 10-ZOL,0.033
same,antifungal MICc,Cryptococcus gattii; in combination with ZOL,0.06
same,MIC / MEC,[4],0.06 µg/mL
same,MIC / MEC,Microsporum canis [5],0.03 µg/mL
same,MIC / MEC,[6],2 µg/mL
same,MIC / MEC,Aspergillus niger [7],1 µg/mL
same,MIC / MEC,[8],0.06 µg/mL
same,MIC / MEC,Aspergillus parafelis [9],8 µg/mL
same,MIC / MEC,Aspergillus felis,2 µg/mL
same,MIC / MEC,Mucor circinelloides,8 µg/mL
same,antifungal MICc,Pichia kudriavzevii [10]; in combination with 10-ZOL,0.5
same,antifungal MICc,Pichia kudriavzevii [10]; in combination with ZOL,1
same,antifungal MICc,Fusarium solani; in combination with 10-ZOL,0.5
same,antifungal MICc,Fusarium solani; in combination with ZOL,1
same,MIC / MEC,Paraphyton cookei [11],0.5 µg/mL
same,antifungal MICc,Aspergillus lentulus; in combination with 10-ZOL,0.5
same,antifungal MICc,Aspergillus lentulus; in combination with ZOL,0.5
same,antifungal MICc,Candida parapsilosis; in combination with 10-ZOL,0.063
same,antifungal MICc,Candida parapsilosis; in combination with ZOL,0.125
same,antifungal MICc,Aspergillus udagawae [12]; in combination with 10-ZOL,0.03
same,antifungal MICc,Aspergillus udagawae [12]; in combination with ZOL,0.5
same,antifungal MICc,Aspergillus parafelis [13]; in combination with 10-ZOL,2
same,antifungal MICc,Aspergillus parafelis [13]; in combination with ZOL,2
same,antifungal MICc,[14]; in combination with 10-ZOL,0.03
same,antifungal MICc,[14]; in combination with ZOL,0.125
same,MIC / MEC,Nannizzia gypsea [15],0.25 µg/mL
same,MIC / MEC,Nannizzia nana [16],0.06 µg/mL
same,MIC / MEC,Aspergillus udagawae [17],1 µg/mL
same,MIC / MEC,Epidermophyton floccosum,0.25 µg/mL
same,MIC / MEC,Trichophyton soudanense,0.13 µg/mL
same,antifungal MICc,Aspergillus terreus [18]; in combination with 10-ZOL,0.25
same,antifungal MICc,Aspergillus terreus [18]; in combination with ZOL,0.125
same,antifungal MICc,Nannizzia nana [19]; in combination with 10-ZOL,0.0625
same,antifungal MICc,Nannizzia nana [19]; in combination with ZOL,0.0625
same,antifungal MICc,Microsporum canis [20]; in combination with 10-ZOL,0.031
same,antifungal MICc,Microsporum canis [20]; in combination with ZOL,0.015
same,antifungal MICc,Scedosporium apiospermum; in combination with 10-ZOL,0.5
same,antifungal MICc,Scedosporium apiospermum; in combination with ZOL,1
same,MIC / MEC,Candida auris,2 µg/mL
same,antifungal MICc,Fusarium oxysporum; in combination with 10-ZOL,1
same,antifungal MICc,Fusarium oxysporum; in combination with ZOL,4
same,MIC / MEC,Aspergillus terreus [21],0.25 µg/mL
same,antifungal MICc,Aspergillus niger [22]; in combination with 10-ZOL,0.13
same,antifungal MICc,Aspergillus niger [22]; in combination with ZOL,1
